Several values for one entry are separate records, joined by “and”; a condition that tells them apart may be missing. Equal entries are not always repeated.
Assay: Intravenous and intraduodenal (bolus) bioavailability of zanamivir from Capmul MCM L8 25, 50, 75 µL (Example 7)
Conditions: for Co: extrapolated to t = 0
Source text: Male Sprague-Dawley rats (Hilltop Labs), 3 animals per treatment group, 250-350 grams in weight, were fitted with a jugular vein cannula (JVC). Animals intended for intraduodenal dosing were also fitted with one or more intraduodenal cannula (IDC) and those intended for intravenous dosing were fitted with a second JVC. Food was withheld from the animals for a minimum of twelve hours prior to test article administration and was returned approximately four hours post-dose. Water was supplied ad libitum.
Intraduodenal doses composed of 1.5 mg of zanamivir and varying amounts of an enhancer (glycerol or Capmul MCM L8) were injected directly into the duodenum via the IDC. Intravenous dosing was conducted by the injection of 1.5 mg of zanamivir in 200 μL of PBS through a JVC. For some experiments, the absorption enhancer was administered intraduodenally 2 hr prior to administering 1.5 mg of zanamivir in PBS through a second IDC. Each intraduodenal dose was followed with the introduction of a small air bubble (˜10 μL) in the cannula followed by a flush of 125 μL of PBS to ensure the dose was given in full. The volume of PBS used for cannula flush was consistent across the treatment groups. The cannula was tied to prevent the PBS remaining in the cannula from entering the duodenum.
Blood samples collected via the JVC, approximately 400 μL each, were obtained at 2 min, 5 min, 15 min, 30 min, 60 min, 90 min, and 120 min, with sodium heparin used as an anti-coagulant. Each sample was placed into a chilled tube containing the anticoagulant and kept on ice until centrifugation at 4° C., 3,000×g, for 5 min. The plasma supernatants were stored at −70° C. until LC-MS analysis.
Dosing solution samples were assayed by LC-MS/MS using electrospray ionization. The chromatographic system consisted of Perkin Elmer series 200 micropumps and autosampler equipped with a Waters Atlantic® HILIC Silica 3 μM, 2.1×50 mm column. The mass spectrometer was a PE Sciex API 4000 with electrospray interface in multiple reaction monitoring mode. […] Stock solutions (1 mg/mL zanamivir) were prepared in water. Standards (eight concentrations) were prepared in the appropriate matched matrix (HBSSg or Sprague-Dawley rat plasma containing sodium heparin) and diluted 50-fold with methanol. Experimental samples were treated identically.
Standards and samples were prepared in Sprague Dawley rat plasma containing sodium heparin as an anticoagulant. An eight-point calibration curve was prepared at concentrations of 1000, 750, 500, 250, 100, 50, 25, and 10 ng/mL by serial dilution. Standard samples were treated identically to the study samples.
Plasma samples were extracted by protein precipitation in methanol.
In this example, the bioavailability of Zanamivir was evaluated after intraduodenal doses in male Sprague-Dawley rats. The test compound was dosed at 1.5 mg/animal through intravenous and intraduodenal routes from normal saline and Capmul MCM L8 formulations, respectively. Plasma levels were determined by LC-MS/MS analysis. Pharmacokinetic parameters were estimated by a non-compartmental model using WinNonlin v5.2.1 software.
Each ID dose in groups 2-4 will be followed with a small air bubble ([…]) and a flush of […] of PBS to insure the dose is given in full. The volume of PBS used for cannulae flush will be maintained consistent across the animals and the treatment groups. The cannula will then be tied to help prevent the PBS remaining in the cannula from entering the duodenum.

[1] = IV 1.5 mg/animal, Normal Saline, Ex.7, individual rats

For CC(=O)NC1C(NC(=N)N)C=C(C(=O)O)OC1C(O)C(O)CO (stereo not drawn) [Zanamivir, 5-acetamido-4-guanidino-6-(1,2,3-trihydroxypropyl)-5,6-dihydro-4H-pyran-2-carboxylic acid], the Plasma concentration (ID bolus 1.5 mg/animal, 25 µL Capmul MCM L8, 0.25 hr, individual rats) was 1500 ng/mL and 1380 ng/mL and 655 ng/mL, the Plasma concentration (ID bolus 1.5 mg/animal, 25 µL Capmul MCM L8, 0.5 hr, individual rats) was 950 ng/mL and 647 ng/mL and the Plasma concentration (ID bolus 1.5 mg/animal, 25 µL Capmul MCM L8, 0.83 hr, individual rats) was 1960 ng/mL and 2090 ng/mL and 913 ng/mL. For the same molecule, the Plasma concentration (ID bolus 1.5 mg/animal, 25 µL Capmul MCM L8, 1.0 hr, individual rats) was 378 ng/mL and 259 ng/mL, the Plasma concentration (ID bolus 1.5 mg/animal, 25 µL Capmul MCM L8, 1.5 hr, individual rats) was 143 ng/mL and 119 ng/mL and the Plasma concentration (ID bolus 1.5 mg/animal, 25 µL Capmul MCM L8, 2.0 hr, individual rats) was 78.2 ng/mL and 66.8 ng/mL. The t1/2 (ID bolus 1.5 mg/animal, 25 µL Capmul MCM L8, individual rats) was 26.4 min and 30.7 min, the Plasma concentration (ID bolus 1.5 mg/animal, 50 µL Capmul MCM L8, Ex.7, 0.25 hr, individual rats) was 1400 ng/mL and 1270 ng/mL and the Plasma concentration (ID bolus 1.5 mg/animal, 50 µL Capmul MCM L8, Ex.7, 0.5 hr, individual rats) was 985 ng/mL and 774 ng/mL. For the same molecule, the Plasma concentration (ID bolus 1.5 mg/animal, 50 µL Capmul MCM L8, Ex.7, 0.83 hr, individual rats) was 2130 ng/mL and 1600 ng/mL, the Plasma concentration (ID bolus 1.5 mg/animal, 50 µL Capmul MCM L8, Ex.7, 1.0 hr, individual rats) was 708 ng/mL and 551 ng/mL and the Plasma concentration (ID bolus 1.5 mg/animal, 50 µL Capmul MCM L8, Ex.7, 1.5 hr, individual rats) was 299 ng/mL and 217 ng/mL. For the same molecule, the Plasma concentration (ID bolus 1.5 mg/animal, 50 µL Capmul MCM L8, Ex.7, 2.0 hr, individual rats) was 158 ng/mL and 99.5 ng/mL, the t1/2 (ID bolus 1.5 mg/animal, 50 µL Capmul MCM L8, Ex.7, individual rats) was 27.7 min and 24.3 min and the Plasma concentration (IV 1.5 mg/animal, Normal Saline, Ex.7, 0.033 hr, individual rats) was 22900 ng/mL and 20400 ng/mL. The Plasma concentration (IV 1.5 mg/animal, Normal Saline, Ex.7, 0.083 hr, individual rats) was 12300 ng/mL and 13500 ng/mL, the Plasma concentration (IV 1.5 mg/animal, Normal Saline, Ex.7, 0.25 hr, individual rats) was 9620 ng/mL and 11600 ng/mL and the Plasma concentration (IV 1.5 mg/animal, Normal Saline, Ex.7, 0.5 hr, individual rats) was 5500 ng/mL and 6450 ng/mL. For the same molecule, the Plasma concentration (IV 1.5 mg/animal, Normal Saline, Ex.7, 1.0 hr, individual rats) was 1520 ng/mL and 2190 ng/mL, the Plasma concentration (IV 1.5 mg/animal, Normal Saline, Ex.7, 1.5 hr, individual rats) was 661 ng/mL and 862 ng/mL and the Plasma concentration (IV 1.5 mg/animal, Normal Saline, Ex.7, 2.0 hr, individual rats) was 220 ng/mL and 432 ng/mL. For the same molecule, the Co [1] was 32061 ng/mL and 34657 ng/mL and 26863 ng/mL, the Co (IV 1.5 mg/animal, Normal Saline, Ex.7, mean) was 31194 ± 3968 ng/mL and 31194 ng/mL and the CL [1] was 10.7 mL/min/kg and 9.52 mL/min/kg. The T1/2 [1] was 21.5 min and 25.6 min, the Vss [1] was 0.260 L/kg and 0.278 L/kg and the half-life (male, Sprague-Dawley, rat, in vivo, 1.5 mg, average half-life, ID bolus 1.5 mg/animal, 75 µL Capmul MCM L8) was 24.9 ± 3.78 min. It also gave a bioavailability (male, Sprague-Dawley, rat, in vivo, 1.5 mg, overall percent bioavailability) of 25%, a half-life (male, Sprague-Dawley, rat, in vivo, 1.5 mg, t1/2, ID bolus 1.5 mg/animal, 25 µL Capmul MCM L8, individual rats) of 24.5 min and a half-life (male, Sprague-Dawley, rat, in vivo, 1.5 mg, t1/2, ID bolus 1.5 mg/animal, 25 µL Capmul MCM L8, mean) of 27.2 ± 3.18 min. It also gave a half-life (male, Sprague-Dawley, rat, in vivo, 1.5 mg, t1/2, ID bolus 1.5 mg/animal, 50 µL Capmul MCM L8, Ex.7, individual rats) of 21.8 min, a half-life (male, Sprague-Dawley, rat, in vivo, 1.5 mg, t1/2, ID bolus 1.5 mg/animal, 50 µL Capmul MCM L8, Ex.7, mean) of 24.6 min and a half-life (male, Sprague-Dawley, rat, in vivo, 1.5 mg, t1/2, intraduodenal bolus, 1.5 mg/animal, 75 μL Capmul MCM L8, mean of 3 rats) of 24.9 min. It also gave a half-life (male, Sprague-Dawley, rat, in vivo, 1.5 mg, t1/2, intraduodenal bolus, 1.5 mg/animal, 75 μL Capmul MCM L8, rat 963) of 29.2 min, a half-life (male, Sprague-Dawley, rat, in vivo, 1.5 mg, t1/2, intraduodenal bolus, 1.5 mg/animal, 75 μL Capmul MCM L8, rat 964) of 21.9 min and a half-life (male, Sprague-Dawley, rat, in vivo, 1.5 mg, t1/2, intraduodenal bolus, 1.5 mg/animal, 75 μL Capmul MCM L8, rat 965) of 23.6 min. It also gave a half-life (male, Sprague-Dawley, rat, in vivo, 1.5 mg, t1/2, summary, intraduodenal, 1.5 mg/animal, 25 μL Capmul MCM L8) of 27.2 min, a half-life (male, Sprague-Dawley, rat, in vivo, 1.5 mg, t1/2, summary, intraduodenal, 1.5 mg/animal, 50 μL Capmul MCM L8) of 24.6 min and a half-life (male, Sprague-Dawley, rat, in vivo, 1.5 mg, t1/2, summary, intraduodenal, 1.5 mg/animal, 75 μL Capmul MCM L8) of 24.9 min. For the same molecule, the Tmax (male, Sprague-Dawley, rat, in vivo, 1.5 mg, tmax, intraduodenal bolus, 1.5 mg/animal, 75 μL Capmul MCM L8, rat 964) was 15 min, the concentration at 0.25 hr (male, Sprague-Dawley, rat, in vivo, 1.5 mg/animal, Plasma concentration, ID bolus 1.5 mg/animal, 25 µL Capmul MCM L8, 0.25 hr, mean) was 1180 ng/mL and the concentration at 0.5 hr (male, Sprague-Dawley, rat, in vivo, 1.5 mg/animal, Plasma concentration, ID bolus 1.5 mg/animal, 25 µL Capmul MCM L8, 0.5 hr, individual rats) was 916 ng/mL. It also gave a concentration at 0.5 hr (male, Sprague-Dawley, rat, in vivo, 1.5 mg/animal, Plasma concentration, ID bolus 1.5 mg/animal, 25 µL Capmul MCM L8, 0.5 hr, mean) of 838 ng/mL, a concentration at 0.83 hr (male, Sprague-Dawley, rat, in vivo, 1.5 mg/animal, Plasma concentration, ID bolus 1.5 mg/animal, 25 µL Capmul MCM L8, 0.83 hr, mean) of 1650 ng/mL and a concentration at 1 hr (male, Sprague-Dawley, rat, in vivo, 1.5 mg/animal, Plasma concentration, ID bolus 1.5 mg/animal, 25 µL Capmul MCM L8, 1.0 hr, individual rats) of 387 ng/mL. For the same molecule, the concentration at 1 hr (male, Sprague-Dawley, rat, in vivo, 1.5 mg/animal, Plasma concentration, ID bolus 1.5 mg/animal, 25 µL Capmul MCM L8, 1.0 hr, mean) was 341 ng/mL, the concentration at 1.5 hr (male, Sprague-Dawley, rat, in vivo, 1.5 mg/animal, Plasma concentration, ID bolus 1.5 mg/animal, 25 µL Capmul MCM L8, 1.5 hr, individual rats) was 145 ng/mL and the concentration at 1.5 hr (male, Sprague-Dawley, rat, in vivo, 1.5 mg/animal, Plasma concentration, ID bolus 1.5 mg/animal, 25 µL Capmul MCM L8, 1.5 hr, mean) was 136 ng/mL. It also gave a concentration at 2 hr (male, Sprague-Dawley, rat, in vivo, 1.5 mg/animal, Plasma concentration, ID bolus 1.5 mg/animal, 25 µL Capmul MCM L8, 2.0 hr, individual rats) of 70.7 ng/mL, a concentration at 2 hr (male, Sprague-Dawley, rat, in vivo, 1.5 mg/animal, Plasma concentration, ID bolus 1.5 mg/animal, 25 µL Capmul MCM L8, 2.0 hr, mean) of 71.9 ng/mL and a concentration at 0.25 hr (male, Sprague-Dawley, rat, in vivo, 1.5 mg/animal, Plasma concentration, ID bolus 1.5 mg/animal, 50 µL Capmul MCM L8, Ex.7, 0.25 hr, individual rats) of 2060 ng/mL. It also gave a concentration at 0.25 hr (male, Sprague-Dawley, rat, in vivo, 1.5 mg/animal, Plasma concentration, ID bolus 1.5 mg/animal, 50 µL Capmul MCM L8, Ex.7, 0.25 hr, mean) of 1580 ng/mL, a concentration at 0.5 hr (male, Sprague-Dawley, rat, in vivo, 1.5 mg/animal, Plasma concentration, ID bolus 1.5 mg/animal, 50 µL Capmul MCM L8, Ex.7, 0.5 hr, individual rats) of 1250 ng/mL and a concentration at 0.5 hr (male, Sprague-Dawley, rat, in vivo, 1.5 mg/animal, Plasma concentration, ID bolus 1.5 mg/animal, 50 µL Capmul MCM L8, Ex.7, 0.5 hr, mean) of 1000 ng/mL.

— patent US20140314857A1, “FORMULATIONS FOR ENHANCED BIOAVAILABILITY OF ZANAMIVIR” (priority 2012, published 2014)
